{"source": "patent EP0960338B1", "about": "“DIAGNOSTIC METHODS AND COMPOSITIONS BASED ON THE DISTRIBUTION OF RAD51” (Yale University, priority 1997, dated 1998)", "key": {"TGR-1 cells [1]": {"test_system": "TGR-1 cells", "experiment": "Immunofluorescent staining of Rad51 foci in nuclei and micronuclei", "format": "cell-based, rat", "experimental": "(§1) Cell Culture. The sources of the cell lines were as follows. Rat TGR-1 cells, J. Sedivy. Brown University; mouse 3T3-Swiss cells, ATCC; human 293 kidney cells, ATCC; human teratoma cells, B. King, Yale University; human LNL8 fibroblasts, S. Meyn, Yale: human XPA and XPF fibroblasts, P Glazer, Yale.\n(§2) Monolayer cultures were grown in D-MEM medium supplemented with 10% fetal bovine serum and antibiotics.\n(§3) Immunofluorescent Staining.\n(§4) Digital Imaging Microscopy."}, "LNL8 fibroblasts": {"test_system": "LNL8 fibroblasts", "experiment": "Immunofluorescent staining of Rad51 foci in nuclei and micronuclei", "format": "cell-based, human", "experimental": "as §1, §2, §3, §4"}, "TGR-1 cells [2]": {"test_system": "TGR-1 cells"}, "TGR-1 cells [3]": {"test_system": "TGR-1 cells", "experiment": "Apoptosis by fluorescence in situ end labeling (FISEL)", "format": "cell-based, rat", "settings": "for Percentage of Apoptotic Cells: FISEL+", "method": "Fluorescence In Situ End Labeling (FISEL). FISEL detects cell death (apoptosis) in situ by quantitating DNA strand breaks in individual nuclei. It uses terminal transferase (TdT) to label the 3'-ends in fragmented genomic DNA with biotinylated nucleotide. 100 µl of reaction mix contain 1 µl (25 Units) TdT (Boehringer Mannheim), 20 µl 5xTdT buffer (supplied with the enyzme), 1 µl 0.5 mM biotin-II-dUTP, 3 µl 0.5 mM dTTP, and 75 µl ddH2O. Cytological preprations are incubated at 37°C for 1 hr with this reaction mix. Washing the slides for 3x5 min in PBS is sufficient to terminate the reaction. The incorporated biotin-dUTP is detected with rhodarnine-conjugated avidin.\nAnother more classical way for inducing apoptosis in vitro is the exposure of TGR-1 cells to the topoisomerase II inhibitor etoposide."}, "[4]": {"settings": "TGR-1, 10^-5 M 5-aza-dC added 24 hrs before cell harvest"}, "[5]": {"settings": "LNL8, 10^-5 M 5-aza-dC added 24 hrs before cell harvest"}, "[6]": {"settings": "TGR-1, 2 hrs in medium containing etoposide"}, "[7]": {"settings": "TGR-1, 5 hrs in medium containing etoposide"}, "[8]": {"settings": "TGR-1, 12 hrs in medium containing etoposide"}, "[9]": {"settings": "TGR-1, 18 hrs in medium containing etoposide"}, "[10]": {"settings": "TGR-1, 24 hrs in medium containing etoposide"}, "[11]": {"settings": "TGR-1, 36 hrs in medium containing etoposide"}}, "note": "Values joined by “and” are separate entries in the source; they are usually repeats but may differ in a detail not shown here. Equal entries are not always repeated.", "data": [{"compound": "Nc1ncn([C@H]2C[C@H](O)[C@@H](CO)O2)c(=O)n1", "note": "[5-aza-dC, 5-azadeoxycytidine]", "values": [{"measurement": "cells displaying MN with focally concentrated Rad51 protein", "setting": "TGR-1 cells [1]; Rat TGR-1 cultures, non-lethal doses of 5-aza-dC, range stated jointly with LNL8", "result": "5-10%"}, {"measurement": "Percentage of Cells with Type I Foci in Micronuclei", "setting": "TGR-1 cells [1]; [4]", "result": 4, "unit": "%"}, {"measurement": "Percentage of Cells with Type I Foci in Nuclei", "setting": "TGR-1 cells [1]; [4]", "result": 5, "unit": "%"}, {"measurement": "Percentage of Cells with Type II Foci in Micronuclei", "setting": "TGR-1 cells [1]; [4]", "result": 4, "unit": "%"}, {"measurement": "Percentage of Cells with Type II Foci in Nuceli", "setting": "TGR-1 cells [1]; [4]", "result": 1, "unit": "%"}, {"measurement": "Percentage of Cells without Foci", "setting": "TGR-1 cells [1]; [4]", "result": 86, "unit": "%"}, {"measurement": "Percentage of Cells with Type I Foci in Micronuclei", "setting": "LNL8 fibroblasts; [5]", "result": 1, "unit": "%"}, {"measurement": "Percentage of Cells with Type I Foci in Nuclei", "setting": "LNL8 fibroblasts; [5]", "result": 3, "unit": "%"}, {"measurement": "Percentage of Cells with Type II Foci in Micronuclei", "setting": "LNL8 fibroblasts; [5]", "result": 5, "unit": "%"}, {"measurement": "Percentage of Cells with Type II Foci in Nuceli", "setting": "LNL8 fibroblasts; [5]", "result": 2, "unit": "%"}, {"measurement": "Percentage of Cells without Foci", "setting": "LNL8 fibroblasts; [5]", "result": 89, "unit": "%"}, {"measurement": "cells displaying MN with focally concentrated Rad51 protein", "setting": "LNL8 fibroblasts; human LNL8 fibroblast cultures, non-lethal doses of 5-aza-dC, range stated jointly with TGR-1", "result": "5-10%"}]}, {"compound": "CN[C@H]1CCc2cc(OC)c(OC)c(OC)c2-c2ccc(OC)c(=O)cc21", "note": "[Colcemid, colcemid]", "values": [{"measurement": "Percentage of Cells Showing Rad 51+/ FISEL+", "setting": "TGR-1 cells [2]", "result": "0% and 1% and 6% and 4%"}, {"measurement": "Percentage of Cells Showing Rad51-/ FISEL-", "setting": "TGR-1 cells [2]", "result": "85% and 54% and 45% and 43%"}, {"measurement": "induced MN containing very brightly fluorescing Rad51 foci", "setting": "TGR-1 cells [2]", "result": "over 30%"}]}, {"compound": "COc1cc([C@@H]2c3cc4c(cc3[C@@H](O[C@@H]3O[C@@H]5CO[C@@H](C)O[C@H]5[C@H](O)[C@H]3O)[C@H]3COC(=O)[C@H]23)OCO4)cc(OC)c1O", "note": "[etoposide]", "values": [{"measurement": "Percentage of Cells with Type I Foci in Micronuclei", "setting": "TGR-1 cells [1]; [6]", "result": 1, "unit": "%"}, {"measurement": "Percentage of Cells with Type I Foci in Nuclei", "setting": "TGR-1 cells [1]; [6]", "result": 4, "unit": "%"}, {"measurement": "Percentage of Cells with Type II Foci in Micronuclei", "setting": "TGR-1 cells [1]; [6]", "result": 2, "unit": "%"}, {"measurement": "Percentage of Cells with Type II Foci in Nuclei", "setting": "TGR-1 cells [1]; [6]", "result": 1, "unit": "%"}, {"measurement": "Percentage of Cells without Foci", "setting": "TGR-1 cells [1]; [6]", "result": 92, "unit": "%"}, {"measurement": "Percentage of Cells with Type I Foci in Micronuclei", "setting": "TGR-1 cells [1]; [7]", "result": 2, "unit": "%"}, {"measurement": "Percentage of Cells with Type I Foci in Nuclei", "setting": "TGR-1 cells [1]; [7]", "result": 3, "unit": "%"}, {"measurement": "Percentage of Cells with Type II Foci in Micronuclei", "setting": "TGR-1 cells [1]; [7]", "result": 2, "unit": "%"}, {"measurement": "Percentage of Cells with Type II Foci in Nuclei", "setting": "TGR-1 cells [1]; [7]", "result": 1, "unit": "%"}, {"measurement": "Percentage of Cells without Foci", "setting": "TGR-1 cells [1]; [7]", "result": 92, "unit": "%"}, {"measurement": "Percentage of Cells with Type I Foci in Micronuclei", "setting": "TGR-1 cells [1]; [8]", "result": 2, "unit": "%"}, {"measurement": "Percentage of Cells with Type I Foci in Nuclei", "setting": "TGR-1 cells [1]; [8]", "result": 8, "unit": "%"}, {"measurement": "Percentage of Cells with Type II Foci in Micronuclei", "setting": "TGR-1 cells [1]; [8]", "result": 2, "unit": "%"}, {"measurement": "Percentage of Cells with Type II Foci in Nuclei", "setting": "TGR-1 cells [1]; [8]", "result": 1, "unit": "%"}, {"measurement": "Percentage of Cells without Foci", "setting": "TGR-1 cells [1]; [8]", "result": 87, "unit": "%"}, {"measurement": "Percentage of Cells with Type I Foci in Micronuclei", "setting": "TGR-1 cells [1]; [9]", "result": 8, "unit": "%"}, {"measurement": "Percentage of Cells with Type I Foci in Nuclei", "setting": "TGR-1 cells [1]; [9]", "result": 3, "unit": "%"}, {"measurement": "Percentage of Cells with Type II Foci in Micronuclei", "setting": "TGR-1 cells [1]; [9]", "result": 9, "unit": "%"}, {"measurement": "Percentage of Cells with Type II Foci in Nuclei", "setting": "TGR-1 cells [1]; [9]", "result": 1, "unit": "%"}, {"measurement": "Percentage of Cells without Foci", "setting": "TGR-1 cells [1]; [9]", "result": 79, "unit": "%"}, {"measurement": "Percentage of Cells with Type I Foci in Micronuclei", "setting": "TGR-1 cells [1]; [10]", "result": 2, "unit": "%"}, {"measurement": "Percentage of Cells with Type I Foci in Nuclei", "setting": "TGR-1 cells [1]; [10]", "result": 2, "unit": "%"}, {"measurement": "Percentage of Cells with Type II Foci in Micronuclei", "setting": "TGR-1 cells [1]; [10]", "result": 8, "unit": "%"}, {"measurement": "Percentage of Cells with Type II Foci in Nuclei", "setting": "TGR-1 cells [1]; [10]", "result": 6, "unit": "%"}, {"measurement": "Percentage of Cells without Foci", "setting": "TGR-1 cells [1]; [10]", "result": 82, "unit": "%"}, {"measurement": "Percentage of Cells with Type I Foci in Micronuclei", "setting": "TGR-1 cells [1]; [11]", "result": 5, "unit": "%"}, {"measurement": "Percentage of Cells with Type I Foci in Nuclei", "setting": "TGR-1 cells [1]; [11]", "result": 2, "unit": "%"}, {"measurement": "Percentage of Cells with Type II Foci in Micronuclei", "setting": "TGR-1 cells [1]; [11]", "result": 9, "unit": "%"}, {"measurement": "Percentage of Cells with Type II Foci in Nuclei", "setting": "TGR-1 cells [1]; [11]", "result": 1, "unit": "%"}, {"measurement": "Percentage of Cells without Foci", "setting": "TGR-1 cells [1]; [11]", "result": 83, "unit": "%"}, {"measurement": "Percentage of Apoptotic Cells", "setting": "TGR-1 cells [3]; 12 hrs in medium containing etoposide", "result": 17, "unit": "%"}, {"measurement": "Percentage of Apoptotic Cells", "setting": "TGR-1 cells [3]; 18 hrs in medium containing etoposide", "result": 24, "unit": "%"}, {"measurement": "Percentage of Apoptotic Cells", "setting": "TGR-1 cells [3]; 24 hrs in medium containing etoposide", "result": 33, "unit": "%"}, {"measurement": "cells showing genome fragmentation, stained FISEL-positively", "setting": "TGR-1 cells [3]; 36 hrs after adding etoposide to the culture medium", "result": "half"}, {"measurement": "Percentage of Apoptotic Cells", "setting": "TGR-1 cells [3]; 36 hrs in medium containing etoposide", "result": 47, "unit": "%"}]}]}
